In the supplement of paper PMC6965134:
± gives the standard deviation of the averaged measurements.

Test: TIMS collisional cross section (CCS, N2) of the lipid ion; higher = larger ion cross section
Details: ionization mode: negative, one isomer drawn
Experimental: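 Lipid extracts of human plasma (NIST SRM 1950), mouse liver or HeLa cells were separated by nanoflow C18 LC (30 min gradient) and analysed by TIMS-PASEF on a timsTOF Pro. Ion mobility was calibrated with the Agilent tuning mix (negative mode ions) and converted to collisional cross sections (Mason–Schamp, N2).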

[1] = sample type: Mouse Liver, ion (formula + adduct): [C43H74NO9P-H] 1-
[2] = sample type: Human plasma, ion (formula + adduct): [C43H78NO9P-H] 1-
[3] = sample type: Mouse Liver, ion (formula + adduct): [C43H78NO9P-H] 1-
[4] = sample type: Human plasma, ion (formula + adduct): [C45H78NO9P-H] 1-
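Note: lipids from MTBE extraction, five replicate injections per sample, 100 ms TIMS ramp spanning 0.6–1.95 Vs/cm², lipid identity assigned from PASEF MS/MS spectra.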

## CCCCC/C=C\C/C=C\C/C=C\CCCCCCC(=O)OC[C@@H](O)COP(=O)(O)OC1[C@H](O)[C@H](O)C(O)[C@H](O)[C@H]1O (stereo partly drawn) [LPI 20:3_0:0]
Sample type: Human plasma, ion (formula + adduct): [C29H51O12P-H] 1-
  TIMS collisional cross section: 240.4 Å²

## CCCCC/C=C\C/C=C\C/C=C\C/C=C\CCCC(=O)OC[C@@H](O)COP(=O)(O)OC1C(O)C(O)C(O)[C@@H](O)C1O (stereo partly drawn) [LPI 20:4_0:0]
Sample type: Human plasma, ion (formula + adduct): [C29H49O12P-H] 1-
  TIMS collisional cross section: 239.9 Å²
Sample type: Mouse Liver, ion (formula + adduct): [C29H49O12P-H] 1-
  TIMS collisional cross section: 241 Å²

## CC/C=C\C/C=C\C/C=C\C/C=C\C/C=C\C/C=C\CCC(=O)OC[C@@H](O)COP(=O)(O)OC1[C@H](O)[C@H](O)C(O)[C@H](O)[C@H]1O (stereo partly drawn) [LPI 22:6_0:0]
Sample type: Human plasma, ion (formula + adduct): [C31H49O12P-H] 1-
  TIMS collisional cross section: 243.8 Å²

## CCCCCCCCCCCCCCCCCC(=O)OC[C@@H](O)COP(=O)(O)OC[C@H](N)C(=O)O [LPS 18:0_0:0]
Sample type: Mouse Liver, ion (formula + adduct): [C24H48NO9P-H] 1-
  TIMS collisional cross section: 227.7 Å²

## CC/C=C\C/C=C\C/C=C\C/C=C\C/C=C\C/C=C\CCC(=O)OC[C@@H](O)COP(=O)(O)OC[C@H](N)C(=O)O [LPS 22:6]
Sample type: Mouse Liver, ion (formula + adduct): [C28H44NO9P-H] 1-
  TIMS collisional cross section: 230.2 Å²

## CCCCC/C=C\C[C@H](O)/C=C/C=C\C/C=C\CCCC(=O)O[C@H](COC(=O)CCCCCCCCCCCCCCC)COP(=O)([O-])OCC[N+](C)(C)C [Oxidized PC 16:0@_20:4]
Sample type: Mouse Liver, ion (formula + adduct): [C44H80NO9P-CH3] 1-
  TIMS collisional cross section: 281.3 Å²

## CCCCCCCCCCCCCCCC(=O)OC[C@H](COP(=O)([O-])OCC[N+](C)(C)C)OC(=O)CCCC(=O)O [Oxidized PC 16:0_5:0]
Sample type: Mouse Liver, ion (formula + adduct): [C29H56NO10P-CH3] 1-
  TIMS collisional cross section: 240.1 Å²

## CCCCCCCCCCCCCCCC(=O)OC[C@H](COP(=O)([O-])OCC[N+](C)(C)C)OC(=O)CCCC=O [Oxidized PC 16:0_5:0]
Sample type: Human plasma, ion (formula + adduct): [C29H56NO9P+HCOO] 1-
  TIMS collisional cross section: 255.5 Å²
Sample type: Mouse Liver, ion (formula + adduct): [C29H56NO9P+AcO] 1-
  TIMS collisional cross section: 258.4 Å²

## CCCCCCCCCCCCCCCC(=O)OC[C@H](COP(=O)([O-])OCC[N+](C)(C)C)OC(=O)CCCCCCCC(=O)O [Oxidized PC 16:0_9:0@]
Sample type: Mouse Liver, ion (formula + adduct): [C33H64NO10P-CH3] 1-
  TIMS collisional cross section: 255.5 Å²

## CCCCCCCCCCCCCCCC(=O)OC[C@H](COP(=O)([O-])OCC[N+](C)(C)C)OC(=O)CCCCCCCC=O [Oxidized PC 16:0_9:0@]
Sample type: Human plasma, ion (formula + adduct): [C33H64NO9P+HCOO] 1-
  TIMS collisional cross section: 267.18 ± 0.29 Å²
Sample type: Human plasma, ion (formula + adduct): [C33H64NO9P-CH3] 1-
  TIMS collisional cross section: 253.8 Å²
Sample type: Mouse Liver, ion (formula + adduct): [C33H64NO9P+HCOO] 1-
  TIMS collisional cross section: 267.1 ± 0.42 Å²

## CCCCC/C=C\C[C@H](O)/C=C/C=C\C/C=C\CCCC(=O)O[C@H](COC(=O)CCCCCCCCCCCCCCC)COP(=O)([O-])OCC[N+](C)(C)C [Oxidized PC 16:0_20:4]
Sample type: Human plasma, ion (formula + adduct): [C44H80NO9P+HCOO] 1-
  TIMS collisional cross section: 296.77 ± 1.3 Å²
Sample type: Mouse Liver, ion (formula + adduct): [C44H80NO9P+HCOO] 1-
  TIMS collisional cross section: 295.67 ± 1.9 Å²

## CCCCC/C=C\C[C@H](O)/C=C/C=C\C/C=C\CCCC(=O)O[C@H](COC(=O)CCCCCCCCCCCCCCCCC)COP(=O)([O-])OCC[N+](C)(C)C [Oxidized PC 18:0_20:4]
Sample type: Human plasma, ion (formula + adduct): [C46H84NO9P+HCOO] 1-
  TIMS collisional cross section: 302.75 ± 1.5 Å²
Sample type: Mouse Liver, ion (formula + adduct): [C46H84NO9P+HCOO] 1-
  TIMS collisional cross section: 302.3 Å²

## CCCCC/C=C\C[C@H](O)/C=C/C=C\C/C=C\CCCC(=O)O[C@H](CO/C=C\CCCCCCCCCCCCCC)COP(=O)(O)OCCN [Oxidized PE 16:0@_20:4]
Sample type: Human plasma, ion (formula + adduct): [C41H74NO8P+OAcO] 1-
  TIMS collisional cross section: 291.6 Å²
Sample type: Human plasma, ion (formula + adduct): [C41H74NO8P-H] 1-
  TIMS collisional cross section: 274.77 ± 1.5 Å²

## CC/C=C\C/C=C\CC(O)/C=C/C=C\C/C=C\C/C=C\CCC(=O)O[C@H](CO/C=C\CCCCCCCCCCCCCC)COP(=O)(O)OCCN (stereo partly drawn) [Oxidized PE 16:0@_22:6]
Sample type: Human plasma, ion (formula + adduct): [C43H74NO8P-H] 1-
  TIMS collisional cross section: 277.4 Å²

## CC/C=C\C/C=C\CC(O)/C=C/C=C\C/C=C\C/C=C\CCC(=O)O[C@H](COC(=O)CCCCCCCCCCCCCCC)COP(=O)(O)OCCN (stereo partly drawn) [Oxidized PE 16:0@_22:6]
[1]
  TIMS collisional cross section: 279 Å²

## CC/C=C\C/C=C\CC(O)/C=C/C=C\C/C=C\C/C=C\CCC(=O)O[C@H](COC(=O)CCCCCCCCCCCCCCC)COP(=O)(O)OCCN (stereo partly drawn) [Oxidized PE 16:0_22:6@]
[1]
  TIMS collisional cross section: 290.6 Å²

## CC/C=C\C/C=C\CC(O)/C=C/C=C\C/C=C\C/C=C\CCC(=O)O[C@H](COC(=O)CCCCCCCCCCCCCCC)COP(=O)(O)OCCN (stereo partly drawn) [Oxidized PE 16:0_22:6]
Sample type: Human plasma, ion (formula + adduct): [C43H74NO9P-H] 1-
  TIMS collisional cross section: 277.85 ± 0.78 Å²
[1]
  TIMS collisional cross section: 277.43 ± 0.71 Å²

## CCCCC/C=C\C[C@H](O)/C=C/C=C\C/C=C\CCCC(=O)O[C@H](CO/C=C\CCCCCCCCCCCCCCCC)COP(=O)(O)OCCN [Oxidized PE 18:0@_20:4]
Sample type: Human plasma, ion (formula + adduct): [C43H78NO8P-H] 1-
  TIMS collisional cross section: 280.43 ± 1.2 Å²

## CCCCC/C=C\C[C@H](O)/C=C/C=C\C/C=C\CCCC(=O)O[C@H](COC(=O)CCCCCCCCCCCCCCCCC)COP(=O)(O)OCCN [Oxidized PE 18:0@_20:4]
[2]
  TIMS collisional cross section: 298.2 Å²
[3]
  TIMS collisional cross section: 281.9 Å²

## CC/C=C\C/C=C\CC(O)/C=C/C=C\C/C=C\C/C=C\CCC(=O)O[C@H](COC(=O)CCCCCCCCCCCCCCCCC)COP(=O)(O)OCCN (stereo partly drawn) [Oxidized PE 18:0@_22:6]
[4]
  TIMS collisional cross section: 285.8 Å²

## CCCCC/C=C\C[C@H](O)/C=C/C=C\C/C=C\CCCC(=O)O[C@H](COC(=O)CCCCCCCCCCCCCCCCC)COP(=O)(O)OCCN [Oxidized PE 18:0_20:4]
[2]
  TIMS collisional cross section: 282.5 Å²
[3]
  TIMS collisional cross section: 279 Å²

## CC/C=C\C/C=C\CC(O)/C=C/C=C\C/C=C\C/C=C\CCC(=O)O[C@H](COC(=O)CCCCCCCCCCCCCCCCC)COP(=O)(O)OCCN (stereo partly drawn) [Oxidized PE 18:0_22:6@]
[4]
  TIMS collisional cross section: 287 Å²

## CC/C=C\C/C=C\CC(O)/C=C/C=C\C/C=C\C/C=C\CCC(=O)O[C@H](COC(=O)CCCCCCCCCCCCCCCCC)COP(=O)(O)OCCN (stereo partly drawn) [Oxidized PE 18:0_22:6]
[4]
  TIMS collisional cross section: 284.6 Å²

## CCCCC/C=C\C[C@H](O)/C=C/C=C\C/C=C\CCCC(=O)O[C@H](CO/C=C\CCCCCC/C=C\CCCCCCCC)COP(=O)(O)OCCN [Oxidized PE 18:1@_20:4]
Sample type: Human plasma, ion (formula + adduct): [C43H76NO8P-H] 1-
  TIMS collisional cross section: 279.7 Å²

## CCCCCCCCCCCCCCCCCCCCC(=O)O[C@H](COC(=O)CCCCCCCCCCCCCCC)COP(=O)(O)O [PA 16:0_21:0@]
Sample type: Mouse Liver, ion (formula + adduct): [C40H79O8P+Cl] 1-
  TIMS collisional cross section: 276.3 Å²

## CCCCCCCCCCCCCCCCCCCCCC(=O)O[C@H](COC(=O)CCCCCCCCCCCCCCCC)COP(=O)(O)O [PA 17:0_22:0@]
Sample type: Human plasma, ion (formula + adduct): [C42H83O8P-CH3] 1-
  TIMS collisional cross section: 286.6 Å²

## CCCCCCCCCCCCCCCCCC(=O)OC[C@H](COP(=O)(O)O)OC(=O)CCCCCCCCCCCCCCC [PA 18:0@_16:0]
Sample type: Mouse Liver, ion (formula + adduct): [C37H73O8P+Cl] 1-
  TIMS collisional cross section: 267.2 Å²

## CCCCCCCCCCCCCCCCCC(=O)OCC(COP(=O)(O)O)OC(=O)CCCCCCCCCCCCCCCCC (stereo not drawn) [PA 18:0_18:0]
Sample type: Mouse Liver, ion (formula + adduct): [C39H77O8P+Cl] 1-
  TIMS collisional cross section: 273.4 Å²

## CCCCCCCCCCCCCCCCCC(=O)O[C@H](COC(=O)CCC)COP(=O)([O-])OCC[N+](C)(C)C [PC 4:0@_18:0]
Sample type: Mouse Liver, ion (formula + adduct): [C30H60NO8P+HCOO] 1-
  TIMS collisional cross section: 248.5 Å²

## CCCCCCCCCCCCCCCCCCCC(=O)O[C@H](COC(=O)CCCCCCC)COP(=O)([O-])OCC[N+](C)(C)C [PC 8:0_20:0@]
Sample type: Mouse Liver, ion (formula + adduct): [C36H72NO8P+HCOO] 1-
  TIMS collisional cross section: 277.6 Å²

## CCCCCC/C=C\CCCCCCCC(=O)O[C@H](COC(=O)CCCCCCCCCCC)COP(=O)([O-])OCC[N+](C)(C)C [PC 12:0@_16:1]
Sample type: Human plasma, ion (formula + adduct): [C36H70NO8P+HCOO] 1-
  TIMS collisional cross section: 275.3 Å²

## CCCCCCCCCCCCCC(=O)O[C@H](COC(=O)CCCCCCCCCCC)COP(=O)([O-])OCC[N+](C)(C)C [PC 12:0_14:0]
Sample type: Human plasma, ion (formula + adduct): [C34H68NO8P+HCOO] 1-
  TIMS collisional cross section: 270.8 Å²

## CCCCC/C=C\C/C=C\CCCCCCCC(=O)O[C@H](COC(=O)CCCCCCCCCCCC)COP(=O)([O-])OCC[N+](C)(C)C [PC 13:0@_18:2]
Sample type: Mouse Liver, ion (formula + adduct): [C39H74NO8P-H] 1-
  TIMS collisional cross section: 266.3 Å²
